Measured values as given in ChEMBL document CHEMBL1201862, “PubChem BioAssay data set” (2004).
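Test compounds were applied to cells in 96-well plates for 48 hours at 5 doses. GI50: concentration for 50% inhibition of growth.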 Calls of active or inactive are those of the source. No stated cut-off is given here; in the data, active = GI50 up to about 1.1 µM and inactive = higher.

Tests used:
Experiment in all cases: NCI tumour cell line growth inhibition, 48 h
A498 = system: A498
CAKI-1 = system: CAKI-1
HCC 2998 = system: HCC 2998
HOP-62 = system: HOP-62
HT-29 = system: HT-29
Hs-578T = system: Hs-578T
LOX IMVI = system: LOX IMVI
MCF7 = system: MCF7
MDA-MB-231 = system: MDA-MB-231
MDA-N = system: MDA-N
MOLT-4 = system: MOLT-4
NCI-H23 = system: NCI-H23
NCI-H522 = system: NCI-H522
RXF 393 = system: RXF 393
SF-268 = system: SF-268
SF-539 = system: SF-539
SR = system: SR
SW-620 = system: SW-620
T47D = system: T47D
TK-10 = system: TK-10

Measured: GI50

COC(=O)c1cncc2c1CC1C3(C(=O)OC)C=NC(C4C(CO)=CCC43)C21C (stereo not given)
inactive: A498 > 100 µM | CAKI-1 > 100 µM | HCC 2998 > 100 µM | HOP-62 > 100 µM | HT-29 > 100 µM | Hs-578T > 100 µM | LOX IMVI > 100 µM | MCF7 > 100 µM | MDA-MB-231 > 100 µM | MDA-N > 100 µM | MOLT-4 > 100 µM | NCI-H23 > 100 µM | NCI-H522 > 100 µM | RXF 393 > 100 µM | SF-268 > 100 µM | SF-539 > 100 µM | SR > 100 µM | SW-620 > 100 µM | T47D > 100 µM | TK-10 > 100 µM

COc1cc2oc(=O)cc(C)c2cc1O
inactive: A498 > 100 µM | CAKI-1 > 100 µM | HCC 2998 3 µM | HOP-62 > 100 µM | HT-29 > 100 µM | Hs-578T > 100 µM | LOX IMVI > 100 µM | MCF7 > 100 µM | MDA-MB-231 > 100 µM | MDA-N > 100 µM | MOLT-4 > 100 µM | NCI-H23 > 100 µM | NCI-H522 > 100 µM | RXF 393 > 100 µM | SF-268 > 100 µM | SF-539 > 100 µM | SR > 100 µM | SW-620 > 100 µM | T47D 41 µM | TK-10 > 100 µM

NC1=Nc2ccccc2Sc2nnc(-c3ccc(Cl)cc3)n21
inactive: A498 20.4 µM | CAKI-1 72.4 µM | HCC 2998 > 100 µM | HOP-62 23.7 µM | HT-29 > 100 µM | Hs-578T 35.2 µM | LOX IMVI 7.03 µM | MCF7 > 100 µM | MDA-MB-231 21.5 µM | MDA-N > 100 µM | MOLT-4 13.9 µM | NCI-H23 > 100 µM | NCI-H522 8.18 µM | RXF 393 22.8 µM | SF-268 19.5 µM | SF-539 26.2 µM | SR 11.2 µM | SW-620 57.1 µM | T47D > 100 µM | TK-10 40.8 µM
